Active and inactive are the calls of the source. No cut-off for these calls is given here.
Tests used:
[1] = target: T1, Stimulator of interferon genes protein (Homo sapiens, UniProt Q86WV6); assay: Agonist activity at STING in human THP1-Blue ISG cells assessed as fold change in ISG activation at 10 uM incubated for 24 hrs by Quanti-Luc or Quanti-blue reagent based luminescence assay; format: cell-based; conditions: filed as agonist
Target sequence in this assay (Q86WV6 whole entry): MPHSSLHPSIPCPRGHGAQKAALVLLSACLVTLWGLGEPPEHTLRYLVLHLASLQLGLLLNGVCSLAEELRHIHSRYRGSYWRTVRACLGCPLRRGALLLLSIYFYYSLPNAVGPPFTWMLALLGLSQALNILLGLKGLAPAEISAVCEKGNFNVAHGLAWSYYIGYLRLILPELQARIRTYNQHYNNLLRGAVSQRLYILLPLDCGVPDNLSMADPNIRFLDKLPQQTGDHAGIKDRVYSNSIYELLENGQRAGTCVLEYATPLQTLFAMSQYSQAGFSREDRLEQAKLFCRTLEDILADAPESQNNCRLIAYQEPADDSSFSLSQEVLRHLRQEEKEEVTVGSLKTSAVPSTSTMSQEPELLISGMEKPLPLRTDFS

[2] = target: T2, Stimulator of interferon genes protein (Mus musculus) (UniProt Q3TBT3); assay: Agonist activity at STING in mouse RAW-Lucia ISG cells assessed as fold change in ISG activation at 50 uM incubated for 24 hrs by Quanti-Luc or Quanti-blue reagent based luminescence assay; format: cell-based
T2 sequence (whole entry): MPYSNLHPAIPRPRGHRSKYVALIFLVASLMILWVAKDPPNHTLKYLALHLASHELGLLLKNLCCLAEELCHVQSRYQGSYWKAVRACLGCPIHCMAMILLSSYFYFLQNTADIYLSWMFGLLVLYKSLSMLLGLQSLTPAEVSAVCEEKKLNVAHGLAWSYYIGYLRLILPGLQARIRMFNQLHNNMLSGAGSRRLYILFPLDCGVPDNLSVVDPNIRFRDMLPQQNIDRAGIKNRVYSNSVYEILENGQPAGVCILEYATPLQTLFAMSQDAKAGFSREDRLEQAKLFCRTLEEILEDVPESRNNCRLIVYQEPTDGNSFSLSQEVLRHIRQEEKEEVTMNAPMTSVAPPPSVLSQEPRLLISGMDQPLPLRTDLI

[3] = target: T1, Stimulator of interferon genes protein; assay: Agonist activity at STING in human THP1-Dual cells assessed as ISG pathway activation incubated for 24 hrs by Quanti-Luc or Quanti-blue reagent based luminescence assay; format: cell-based
Target sequence in this assay (Q86WV6 whole entry): as the sequence (Q86WV6 whole entry) above

[4] = target: T1, Stimulator of interferon genes protein; assay: Binding affinity to STING HAQ variant (unknown origin)
Target sequence in this assay (Q86WV6 whole entry, looked up, change not shown): as the sequence (Q86WV6 whole entry) above

[5] = target: T1, Stimulator of interferon genes protein; assay: Agonist activity at STING in human THP-1 cells assessed as increase in IFN-beta secretion incubated for 5 hrs by AlphaLISA assay; format: cell-based
Target sequence in this assay (Q86WV6 whole entry): as the sequence (Q86WV6 whole entry) above

[6] = target: T1, Stimulator of interferon genes protein; assay: Displacement of cGAMP from human full length STING HAQ variant expressed in insect microsomes incubated for 16 hrs by TopCount scintillation counting method; parameters: species or system Microsome
Target sequence in this assay (Q86WV6 whole entry, looked up, change not shown): as the sequence (Q86WV6 whole entry) above

CT26 [7] = assay: Antitumor activity against mouse CT26 cells implanted in immunocompetent Balb/c mouse assessed as suppression of tumor growth at 250 ug, IT administered on day 1,4 and 7 and measured twice per week; format: functional, cell-based; conditions: dose 250.0 µg, time 7.0 day
[8] = target: T1, Stimulator of interferon genes protein; assay: Agonist activity at STING in human THP1-Dual cells assessed as increase in IFN-beta mRNA expression at 3.3 to 30 uM incubated for 6 hrs by RT-PCR analysis; format: cell-based; conditions: filed as agonist, dose 3.3-30 µM
Target sequence in this assay (Q86WV6 whole entry): as the sequence (Q86WV6 whole entry) above

[9] = target: T1, Stimulator of interferon genes protein; assay: Agonist activity at STING in human THP1-Dual cells assessed as increase in TBK1 phosphorylation at 3.3 to 30 uM incubated for 2 to 4 hrs by Western blot analysis; format: cell-based; conditions: filed as agonist, dose 3.3-30 µM, time 2-4 hrs
Target sequence in this assay (Q86WV6 whole entry): as the sequence (Q86WV6 whole entry) above

CT26 [10] = assay: Antitumor activity against mouse CT26 cells implanted in immunocompetent Balb/c mouse assessed as suppression of tumor growth at 500 ug, IT administered on day 1,4 and 7 and measured twice per week; format: functional, cell-based; conditions: dose 500.0 µg, time 7.0 day
B16-F10 [11] = assay: Antitumor activity against mouse B16-F10 cells implanted in immunocompetent C57BL/6 mouse assessed as inhibition of tumor growth at 500 ug, IT administered on day 1,4 and 7 and measured twice per week for 8 days; format: functional, cell-based; conditions: dose 500.0 µg, time 8.0 day
[12] = Toxicity in STING-knockout C57BL/6 mouse implanted with mouse B16-F10 cells assessed as reduction in body weight at 500 ug, IT administered on day 1,4 and 7 and measured twice per week for 8 days; format: cell-based; conditions: in vivo, other, 192 h, dose 500 µg, time 8 day
[13] = target: T1, Stimulator of interferon genes protein; assay: Agonist activity at STING in human THP1-Dual cells assessed as increase in IRF3 phosphorylation at 3.3 to 30 uM incubated for 2 to 4 hrs by Western blot analysis; format: cell-based; conditions: filed as agonist, dose 3.3-30 µM, time 2-4 hrs
Target sequence in this assay (Q86WV6 whole entry): as the sequence (Q86WV6 whole entry) above

[14] = Toxicity in C57BL/6 mouse implanted with mouse B16-F10 cells assessed as reduction in body weight at 100 mg/kg, po administered via gavage on day 1,4 and 7 and measured twice per week; format: organism-based; conditions: in vivo, 168 h, time 7 day
[15] = Toxicity against Balb/c mouse implanted with mouse 4T1 cells assessed as reduction in body weight at 100 mg/kg, po administered via gavage on day 1,4 and 7 and measured twice per week for 22 days; format: organism-based; conditions: in vivo, 528 h, time 22 day
Homo sapiens = species on record: Homo sapiens; assay: Binding affinity to human STING 293Q variant assessed as thermal stability by measuring rightward shift in fluorescence curve at 50 uM by SYPRO orange dye based differential scanning fluorimetry assay; conditions: filed as agonist
Mus musculus = species on record: Mus musculus; assay: Binding affinity to mouse STING R231 variant assessed as thermal stability by measuring rightward shift in fluorescence curve at 50 uM by SYPRO orange dye based differential scanning fluorimetry assay; conditions: filed as agonist
CT26 [16] = assay: Immunological memory derived antitumor activity against mouse CT26 cells implanted in immunocompetent Balb/c mouse assessed as suppression of tumor growth at 500 ug, IT administered on day 1,4 and 7 followed by reinoculation of cells into tumor-free animal after 2 months and measured for 22 days post inoculation; format: functional, cell-based; conditions: dose 500.0 µg, time 22.0 day
4T1 = assay: Antitumor activity against mouse 4T1 cells implanted in Balb/c mouse assessed as inhibition of tumor growth at 100 mg/kg, po administered via gavage on day 1,4 and 7 and measured twice per week; format: functional, organism-based; conditions: time 7.0 day
[17] = target: T1, Stimulator of interferon genes protein; assay: Agonist activity at STING in human THP1-Dual cells assessed as increase in IP-10 mRNA expression at 3.3 to 30 uM incubated for 6 hrs by RT-PCR analysis; format: cell-based; conditions: filed as agonist, dose 3.3-30 µM
[18] = Toxicity in Balb/c mouse implanted with mouse CT26 cells assessed as reduction in body weight at 500 ug, IT administered on day 1,4 and 7 and measured twice per week; format: cell-based; conditions: in vivo, other, 168 h, dose 500 µg, time 7 day
[19] = test system: Stimulator of interferon genes protein (Homo sapiens), Q86WV6 [UNDEFINED MUTATION]; assay: Agonist activity at STING R232 variant in human 293-Dual hSTING-R232 cells assessed as activation of ISG pathway at 3.3 to 30 uM incubated for 48 hrs by Quanti-Luc or Quanti-blue reagent based luminescence assay; format: cell-based; conditions: filed as agonist, dose 3.3-30 µM
[20] = target: T2, Stimulator of interferon genes protein (Mus musculus); assay: Agonist activity at STING in mouse RAW-Lucia ISG cells assessed as activation of ISG pathway incubated for 24 hrs by Quanti-Luc or Quanti-blue reagent based luminescence assay; format: cell-based; conditions: filed as agonist, dose 3.12-50 µM, DDE = dose-dependent effect
[21] = test system: Stimulator of interferon genes protein (Homo sapiens), Q86WV6 [UNDEFINED MUTATION]; assay: Agonist activity at STING H232 variant in human 293-Dual hSTING-H232 cells assessed as activation of ISG pathway at 3.3 to 30 uM incubated for 48 hrs by Quanti-Luc or Quanti-blue reagent based luminescence assay; format: cell-based; conditions: filed as agonist, dose 3.3-30 µM
[22] = Toxicity in C57BL/6 mouse implanted with mouse B16-F10 cells assessed as reduction in body weight at 500 ug, IT administered on day 1,4 and 7 and measured twice per week for 8 days; format: cell-based; conditions: in vivo, other, 192 h, dose 500 µg, time 8 day
B16-F10 [23] = assay: Antitumor activity against mouse B16-F10 cells implanted in immunocompetent C57BL/6 mouse assessed as inhibition of tumor growth at 100 mg/kg, po administered via gavage on day 1,4 and 7 and measured twice per week; format: functional, organism-based; conditions: time 7.0 day
[24] = Toxicity in STING-knockout C57BL/6 mouse implanted with mouse B16-F10 cells assessed as reduction in body weight at 50 ug, IT administered on day 1,4 and 7 and measured twice per week for 8 days; format: cell-based; conditions: in vivo, other, 192 h, dose 50 µg, time 8 day
[25] = Toxicity in C57BL/6 mouse implanted with mouse B16-F10 cells assessed as reduction in body weight at 50 ug, IT administered on day 1,4 and 7 and measured twice per week for 8 days; format: cell-based; conditions: in vivo, other, 192 h, dose 50 µg, time 8 day

Chain of Stimulator of interferon genes protein (Homo sapiens), Q86WV6 [UNDEFINED MUTATION] (Q86WV6 whole entry, looked up, change not shown): as the sequence (Q86WV6 whole entry) above

| SMILES | fold change (FC) [1] | fold change (FC) ([2]; filed as agonist) | also measured |
| --- | --- | --- | --- |
| CONC(=O)CCC(=O)c1cc2cc(OC)c(OC)cc2s1 | 24.2 | 2.7 |  |
| COc1cc2cc(NC(=O)CC(=O)O)sc2cc1OC | 1 | 1.1 |  |
| COc1cc2cc(C(=O)CCC(=O)O)oc2cc1OC | 0.9 | 1 |  |
| COc1cc2cc(C(=O)NCC(=O)O)sc2cc1OC | 1.2 |  |  |
| COc1cc2cc(C(=O)NCCC(=O)O)sc2cc1OC | 1.2 |  |  |
| COc1cc2cc(C(=O)CCC(=O)O)sc2cc1OC | 23.5 | 13.6 | EC50 [3]: 8.14 µM; EC50 [4]: 1720 nM |
| COc1cc2cc(C(=O)SCC(=O)O)sc2cc1OC | 1 | 1 |  |
| COc1cc2sc(C(=O)CC(C)(C)C(=O)O)cc2c(F)c1OCCCOc1c(OC)cc2sc(C(=O)CC(C)(C)C(=O)O)cc2c1F |  |  | EC50 [5]: 8 nM; IC50 [6]: 2 nM |
| COc1cc2cc(-c3cc(C(=O)O)[nH]n3)sc2cc1OC | 1 | 1 |  |
| Cc1ccc2c(=O)c3cccc(CC(=O)O)c3oc2c1C |  |  | Activity (CT26 [7]): Active |
| COc1cc2cc(CCCC(=O)O)sc2cc1OC | 1 |  | fold change (FC) [2]: < 1 |
| COc1cc2cc(C3=NOC(C(=O)O)C3)sc2cc1OC (centres undefined) | 3.8 | 0.9 |  |
| COc1cc2cc(C(=O)CCC(=O)ONC(C)C)sc2cc1OC | 25.4 | 19.3 | Activity [8]: Active; Activity [9]: Active; Activity (CT26 [10]): Active; inhibition (B16-F10 [11]): Active; Activity [12]: Non-Toxic; Activity [13]: Active; Activity [14]: Non-Toxic; Activity [15]: Non-Toxic; Activity (Homo sapiens): Active; Activity (Mus musculus): Active; EC50 [3]: 2.55 µM; Activity (CT26 [16]): Active; inhibition (4T1): Active; Activity [17]: Active; Activity [18]: Non-Toxic; Activity [19]: Active; Activity [20]: Dde; Activity [21]: Active; Activity [22]: Non-Toxic; inhibition (B16-F10 [23]): Active |
| COc1cc2cc(C(=O)CCC(=O)N(O)C(C)C)sc2cc1OC | 1 | 1.2 |  |
| COc1cc2cc(C(=O)CCC(=O)N(C)OC)sc2cc1OC | 3.2 | 0.5 |  |
| COc1cc2cc(C(=O)CCC(=O)N(O)Cc3ccccc3)sc2cc1OC | 2.3 | 1.1 |  |
| COc1cc2cc(C(CCC(=O)O)OC)sc2cc1OC (centres undefined) | 1 | 0.5 |  |
| COc1cc2cc(C(=O)CCCC(=O)O)sc2cc1OC | 1.1 | 0.8 |  |
| Nc1ncnc2c1ncn2[C@@H]1O[C@@H]2CO[P@@](=O)(S)O[C@@H]3[C@H](O)[C@@H](CO[P@@](=O)(S)O[C@H]2[C@H]1O)O[C@H]3n1cnc2c(N)ncnc21 |  |  | Activity [24]: Non-Toxic; Activity [25]: Non-Toxic |
| COc1cc2cc(C(=O)CCC(=O)ONC3CCCCC3)sc2cc1OC | 25 | 1.1 |  |
| COc1cc2c(cc1OC)S(=O)(=O)C(C(=O)CCC(=O)O)=C2 | 1.1 | 0.7 |  |
| COc1cc2cc(C(=O)CCC(=O)N(C)O)sc2cc1OC | 15 | 0.7 |  |
| COc1cc2cc(C(=O)CCC(=O)ONCc3ccccc3)sc2cc1OC | 22.4 | 25.3 | EC50 [3]: 6.14 µM |
| COc1cc2cc(C(=O)CCC(=O)NOCc3ccccc3)sc2cc1OC | 16.5 | 0.8 |  |
| COc1cc2cc(C(=O)CCC(=O)ONC(C)(C)C)sc2cc1OC | 21.2 |  | fold change (FC) [2]: < 1 |
| COc1cc2cc(C(O)CCC(=O)O)sc2cc1OC (centres undefined) | 0.9 |  | fold change (FC) [2]: < 1 |
| COc1cc2nc(C(=O)CCC(=O)O)[nH]c2cc1OC | 0.9 | 1.1 |  |

— ChEMBL document CHEMBL5108022, “Structure-Activity relationship study of benzothiophene oxobutanoic acid analogues leading to novel stimulator of interferon gene (STING) agonists” (Eur J Med Chem, 2022)
